Source: publication PMC12560097, “An injectable hydrogel containing N-acetylglycine for the treatment of Gaucher disease” (RSC Advances, 2025)

Target: T1, glucocerebrosidase (GCase; recombinant human-derived GBA/Glucosylceramidase, rGCase) (Homo sapiens, UniProt P04062)
T1 construct: gene GBA1; recombinant human-derived GBA/Glucosylceramidase (rGCase)
T1 sequence (P04062 40-536): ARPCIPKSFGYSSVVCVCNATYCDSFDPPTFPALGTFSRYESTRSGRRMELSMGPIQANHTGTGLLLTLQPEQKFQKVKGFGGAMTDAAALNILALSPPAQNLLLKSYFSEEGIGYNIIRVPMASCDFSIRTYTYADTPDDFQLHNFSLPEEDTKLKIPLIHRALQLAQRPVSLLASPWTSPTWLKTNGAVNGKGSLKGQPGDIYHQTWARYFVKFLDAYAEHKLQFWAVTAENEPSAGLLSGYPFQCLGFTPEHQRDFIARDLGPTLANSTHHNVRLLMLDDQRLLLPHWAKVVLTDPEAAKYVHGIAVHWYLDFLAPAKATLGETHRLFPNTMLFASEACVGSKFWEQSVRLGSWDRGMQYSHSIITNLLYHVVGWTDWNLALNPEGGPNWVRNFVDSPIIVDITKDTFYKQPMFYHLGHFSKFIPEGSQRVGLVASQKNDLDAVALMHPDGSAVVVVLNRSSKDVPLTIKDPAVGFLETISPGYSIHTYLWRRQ
Test: fluorogenic 4MU-β-Glc inhibition assay with recombinant GCase, pH […]
Format: biochemical

With `CC(=O)NCC(=O)O` [NAG, N-acetylglycine] the IC50 was 48.5 µM.
